Data published in patent publication US20140057880A1, “ANTCIN DERIVATIVES IN COMBINATION WITH ANTI-CANCER DRUGS IN THE TREATMENT AND/OR PREVENTION OF TUMORS” (Taiwan Antitumor Biotech Co., Ltd., priority 2012, published 2014).
In brackets after ≈: the same amount, converted by molar mass. Where two headings read alike, the source gives them in different places.

Tests used:
HepG2 cells [1] = test system: HepG2 cells
HepG2 cells [2] = test: cells; settings: Homo sapiens, HepG2, 24 h, read-out: IC50 of HepG2 cells
human cancer cells = human cancer cells rather than normal cells; cited from earlier work
CCD-966SK cells = test: Cell viability assay (MTT assay), normal cell line CCD-966SK; format: cell-based

IC50 (HepG2 cells [2]) [µg/mL]	Compound	selective inhibition of proliferation (human cancer cells)	further results
200 (≈ 1540 µM)	O=c1[nH]cc(F)c(=O)[nH]1 [5FU, 5-fluorouracil]		killing of HepG2 cells (HepG2 cells [1]; 5FU alone, high concentration): cannot be completely killed
	C=C(CC[C@@H](C)[C@H]1CC[C@H]2C3=C(C(=O)C[C@]12C)[C@@]1(C)CCC(=O)[C@@H](C)[C@@H]1CC3)[C@@H](C)C(=O)O [Antcin A, 4α-methylergosta-8,24(28)-diene-3,11-dione-26-oic acid]	selectively inhibit proliferation of human cancer cells rather than normal cells	
	C=C(CC[C@@H](C)[C@H]1CC[C@H]2C3=C(C(=O)C[C@]12C)[C@@]1(C)CCC(=O)[C@@H](C)C1C[C@@H]3O)C(C)C(=O)O (stereo partly shown) [Antcin C, 4amethylergosta-8,24(28)-dien-3,11-trion-7P-26-oic acid]	selectively inhibit proliferation of human cancer cells rather than normal cells	
	C=C(CC[C@@H](C)[C@H]1CC[C@H]2C3=C(C(=O)C[C@]12C)[C@@]1(C)CCC(=O)[C@@H](C)[C@@H]1CC3)C(C)C(=O)OC (stereo partly shown) [Methyl antcinate A]	selectively inhibit proliferation of human cancer cells rather than normal cells	
~25 (≈ 62.7 µM)	CCN(CC)CCNC(=O)c1c(C)[nH]c(/C=C2\C(=O)Nc3ccc(F)cc32)c1C [sunitinib]		killing of normal cells (CCD-966SK cells) (CCD-966SK cells; sunitinib alone at about 25 μg/ml (FIG. 10)): also killed
	CC/C(=C(\c1ccccc1)c1ccc(OCCN(C)C)cc1)c1ccccc1 [tamoxifen]		killing of HepG2 cells (HepG2 cells [1]; 12.5 μg/ml tamoxifen alone): cannot be completely killed

Compound	IC50 (HepG2 cells [2]) [µg/mL]	selective inhibition of proliferation (human cancer cells)	further results
O=C1c2c(O)ccc(O)c2C(=O)c2c(NCCNCCO)ccc(NCCNCCO)c21 [mitoxantrone]	~2.5 (≈ 5.62 µM)		viability of normal cells (CCD-966SK cells) (CCD-966SK cells; mitoxantrone alone at about 2.5 μg/ml (FIG. 12)): reduced
